In ChEMBL document CHEMBL1201862, “PubChem BioAssay data set” (2004):
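Method: 48-hour compound exposure of cells in 96-well plates, five concentrations, linear interpolation of endpoints. GI50 = concentration required for 50% inhibition of growth.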 Calls of active or inactive are those of the source. Cut-off read from the data, not from the text of the source: active = GI50 up to about 1.1 µM and inactive = higher.

Legend:
Test in all cases: NCI tumour cell line growth inhibition, 48 h
[1] = system: Malme-3M
[2] = system: SF-268
[3] = system: OVCAR-5
[4] = system: SW-620
[5] = system: SK-MEL-5
[6] = system: RPMI-8226
[7] = system: HT-29
[8] = system: LOX IMVI
[9] = system: UACC-257
[10] = system: U-251
[11] = system: IGROV-1
[12] = system: SNB-19
[13] = system: HOP-62
[14] = system: SK-OV-3
[15] = system: HL-60
[16] = system: CAKI-1
[17] = system: A549
[18] = system: SR
[19] = system: SNB-75
[20] = system: HCT-116

SMILES | GI50 [1] | GI50 [2] | GI50 [3] | GI50 [4] | GI50 [5] | GI50 [6] | GI50 [7] | GI50 [8] | GI50 [9] | GI50 [10] | GI50 [11] | GI50 [12] | GI50 [13] | GI50 [14] | GI50 [15] | GI50 [16] | GI50 [17] | GI50 [18] | GI50 [19] | GI50 [20]
O=C1c2ccccc2-c2ccc(N(Cc3ccc(Br)cc3)Cc3ccc(Br)cc3)cc21 | > 100 µM (inactive) | > 100 µM (inactive) | > 100 µM (inactive) | > 100 µM (inactive) | > 100 µM (inactive) | > 100 µM (inactive) | > 100 µM (inactive) | > 100 µM (inactive) | > 100 µM (inactive) | > 100 µM (inactive) | > 100 µM (inactive) | > 100 µM (inactive) | > 100 µM (inactive) | > 100 µM (inactive) | 20.7 µM (inactive) | > 100 µM (inactive) | 22.3 µM (inactive) | 2.44 µM (inactive) | > 100 µM (inactive) | > 100 µM (inactive)
NC(=O)C(=O)N/N=C1/c2ccccc2CC1C1(O)C(=O)Nc2c(Cl)cc(Cl)cc21 (stereo not drawn) | > 100 µM (inactive) | > 100 µM (inactive) | > 100 µM (inactive) | > 100 µM (inactive) | > 100 µM (inactive) | > 100 µM (inactive) | > 100 µM (inactive) | 88.3 µM (inactive) | > 100 µM (inactive) | > 100 µM (inactive) | > 100 µM (inactive) | > 100 µM (inactive) | > 100 µM (inactive) | > 100 µM (inactive) | > 100 µM (inactive) | 81.8 µM (inactive) | 69.7 µM (inactive) | 70.3 µM (inactive) | 97.3 µM (inactive) | > 100 µM (inactive)
C/C=C1\C=C(OC)CN(CCc2c[nH]c3ccccc23)C1 | 22.5 µM (inactive) | 19 µM (inactive) |  | 70.3 µM (inactive) | 20.2 µM (inactive) | 73.8 µM (inactive) | 25.4 µM (inactive) | 23.2 µM (inactive) | 48.4 µM (inactive) |  | > 100 µM (inactive) | > 100 µM (inactive) | 73.5 µM (inactive) |  | 61 µM (inactive) |  | 80.7 µM (inactive) | 61.8 µM (inactive) | 38.9 µM (inactive) | 36.4 µM (inactive)
O=C(O)c1ccccc1/C=N\N(CCO)C1=NCCN1 | > 100 µM (inactive) | > 100 µM (inactive) | > 100 µM (inactive) | > 100 µM (inactive) | > 100 µM (inactive) | > 100 µM (inactive) | > 100 µM (inactive) | > 100 µM (inactive) |  | > 100 µM (inactive) | > 100 µM (inactive) | > 100 µM (inactive) | > 100 µM (inactive) | > 100 µM (inactive) | > 100 µM (inactive) |  | > 100 µM (inactive) | > 100 µM (inactive) | 93.1 µM (inactive) | > 100 µM (inactive)
[N-]=[N+]=NC1(c2ccccc2)C(=O)Nc2ccccc2C1=O (stereo not drawn) | 40.7 µM (inactive) | 38.2 µM (inactive) | 30 µM (inactive) | 26.4 µM (inactive) | 14.9 µM (inactive) | 22.7 µM (inactive) | 31.3 µM (inactive) | 37.5 µM (inactive) | 78.2 µM (inactive) | 41.2 µM (inactive) | 37.1 µM (inactive) | 38 µM (inactive) | 41.8 µM (inactive) | 55.6 µM (inactive) | 34.5 µM (inactive) | 32.2 µM (inactive) | 76.4 µM (inactive) | 41.2 µM (inactive) | 60.3 µM (inactive) | 30.3 µM (inactive)
COc1ccc2c(c1)C/C(=C\c1ccc(O)c(OC)c1)C2=O |  | > 100 µM (inactive) | > 100 µM (inactive) | > 100 µM (inactive) | > 10 µM (inactive) | > 100 µM (inactive) | > 100 µM (inactive) | > 100 µM (inactive) |  | > 100 µM (inactive) | > 10 µM (inactive) | > 100 µM (inactive) |  | > 100 µM (inactive) | > 100 µM (inactive) | > 100 µM (inactive) | > 100 µM (inactive) | > 100 µM (inactive) | 46 µM (inactive) | 
NC1CC(=O)c2sc(I)cc21 (stereo not drawn) | > 100 µM (inactive) | > 100 µM (inactive) | > 100 µM (inactive) | 53.6 µM (inactive) | > 100 µM (inactive) | 92.5 µM (inactive) | > 100 µM (inactive) |  | > 100 µM (inactive) | > 100 µM (inactive) | > 100 µM (inactive) | > 100 µM (inactive) | > 100 µM (inactive) | > 100 µM (inactive) | 18.7 µM (inactive) | 40.3 µM (inactive) | > 100 µM (inactive) | 8.39 µM (inactive) | > 100 µM (inactive) | 78.9 µM (inactive)
C=C1C(=O)O[C@H]2C/C(C)=C/CC[C@@]3(C)O[C@](C)(CC[C@@H]3I)[C@@H](I)C[C@@H]12 | 7.59 µM (inactive) | 6.92 µM (inactive) | 10.2 µM (inactive) | 3.81 µM (inactive) | 3.32 µM (inactive) | 0.959 µM (active) | 3.37 µM (inactive) | 1.56 µM (inactive) | 5.9 µM (inactive) | 4.49 µM (inactive) | 1.78 µM (inactive) | 6.95 µM (inactive) | 8.59 µM (inactive) | 7.24 µM (inactive) | 0.893 µM (active) | 7.19 µM (inactive) | 6.78 µM (inactive) | 1.5 µM (inactive) | 6.03 µM (inactive) | 2.92 µM (inactive)
CN1C(CC(O)c2ccccc2)CCCC1CC(O)(c1ccccc1)c1ccccc1 (stereo not drawn) | 18.2 µM (inactive) | 18.7 µM (inactive) | 15 µM (inactive) | 19.4 µM (inactive) | 16.6 µM (inactive) | 17.1 µM (inactive) | 12.1 µM (inactive) | 20.3 µM (inactive) | 17.6 µM (inactive) | 15.1 µM (inactive) | 17.2 µM (inactive) | 17.1 µM (inactive) | 14.3 µM (inactive) | 21.4 µM (inactive) | 17.3 µM (inactive) | 75.2 µM (inactive) | 22.1 µM (inactive) | 18.7 µM (inactive) | 19.1 µM (inactive) | 14.9 µM (inactive)
CCCOC(=O)CNC(=O)OC(C)(C)C | > 100 µM (inactive) | > 100 µM (inactive) | > 100 µM (inactive) | > 100 µM (inactive) | > 100 µM (inactive) |  | > 100 µM (inactive) | > 100 µM (inactive) | > 100 µM (inactive) | > 100 µM (inactive) | > 100 µM (inactive) | > 100 µM (inactive) | > 100 µM (inactive) | > 100 µM (inactive) | > 100 µM (inactive) | > 100 µM (inactive) | > 100 µM (inactive) | > 100 µM (inactive) | > 100 µM (inactive) | > 100 µM (inactive)
CC(C)C1=CC2=CC[C@@H]3[C@](C)(CCC[C@@]3(C)C(=O)O)[C@H]2CC1 [ABIETIC ACID] | > 67 µM (inactive) | > 69 µM (inactive) | > 75.5 µM (inactive) | 45.8 µM (inactive) | 60.5 µM (inactive) | > 46.6 µM (inactive) | 30.1 µM (inactive) | 58.6 µM (inactive) | 56.1 µM (inactive) | 50.1 µM (inactive) | 57.5 µM (inactive) | > 67.1 µM (inactive) | > 67.8 µM (inactive) | > 81.7 µM (inactive) | > 50.5 µM (inactive) | 36.2 µM (inactive) | 50.6 µM (inactive) | > 100 µM (inactive) | 55.8 µM (inactive) | 45.1 µM (inactive)
